The data set in a line: Evaluation of hydrosolubility: presence or absence of precipitate in buffered solutions. The conditions noted are these: for hydrosolubility (presence or absence of precipitate): diluted from DMSO stock solution.

Description: The hydrosolubility of the compounds was evaluated as a function of the presence or absence of precipitate in buffered solutions of the compounds in question at different concentrations.
These stock solutions were then diluted in a commercial PBS buffer in order to obtain a range of final concentrations between 1 mM and 50 μM. A compound was declared to be insoluble if a precipitate appeared and persisted after dilution.

Turning to `Cc1cc(=O)oc2cc(OC(=O)N3CCNCC3CNC(=O)Cc3ccccc3)ccc12` (centres unmarked) [Compound 12, 4-methyl-2-oxo-2H-chromen-7-yl 2-((2-phenylacetamido)methyl)piperazine-1-carboxylate], the “hydrosolubility (presence or absence of precipitate)” value (“hydrosolubility” for short) was “soluble” (50 μM in PBS buffer); “soluble” (100 μM in PBS buffer); “soluble” (250 μM in PBS buffer); “soluble” (500 μM in PBS buffer); “soluble” (1 mM in PBS buffer).
On to `Cc1cc(=O)oc2cc(OC(=O)N3CCCCC3CNC(=O)Cc3ccccc3)ccc12` (centres unmarked) [Compound 15, 4-methyl-2-oxo-2H-chromen-7-yl 2-((2-phenylacetamido)methyl)piperidine-1-carboxylate, reference compound], for which the “hydrosolubility” value runs as follows: (50 μM in PBS buffer) “insoluble”; (100 μM in PBS buffer) “insoluble”; (250 μM in PBS buffer) “insoluble”; (500 μM in PBS buffer) “insoluble”; (1 mM in PBS buffer) “insoluble”.
Take `CCCCCCCC(=O)OCC1CCCCN1C(=O)Oc1ccc2c(C)cc(=O)oc2c1` (centres unmarked) [Compound 27, 4-methyl-2-oxo-2H-chromen-7-yl 2-((octanoyloxy)methyl)piperidine-1-carboxylate, reference compound]: the “hydrosolubility” value is, setting by setting: (50 μM in PBS buffer) “soluble”; (100 μM in PBS buffer) “soluble”; (250 μM in PBS buffer) “insoluble”; (500 μM in PBS buffer) “insoluble”; (1 mM in PBS buffer) “insoluble”.
Take `COCCOCCOCCn1cc(CCC(=O)N2CCN(C(=O)Oc3ccc(Cl)cc3-c3nc4ccc(Cl)cc4c(=O)[nH]3)C(CNC(=O)Cc3ccccc3)C2)nn1` (centres unmarked) [Compound 39, 4-chloro-2-(6-chloro-4-oxo-3,4-dihydroquinazolin-2-yl)phenyl 4-(3-(1-(2-(2-(2-methoxyethoxy)ethoxy)ethyl)-1H-1,2,3-triazol-4-yl)propanoyl)-2-((2-phenylacetamido)methyl)piperazine-1-carboxylate]: the “hydrosolubility” value (50 μM in PBS buffer) is “soluble”; the “hydrosolubility” value (100 μM in PBS buffer) was “soluble”; the “hydrosolubility” value (250 μM in PBS buffer) was “soluble”; the “hydrosolubility” value (500 μM in PBS buffer) is reported as “insoluble”; the “hydrosolubility” value (1 mM in PBS buffer) is listed as “insoluble”.
As to `Cc1cc(=O)oc2cc(NC(=O)[C@@H](N)CC(C)C)ccc12` [AMC-Leu, reference compound], the “appearance of stock solution in DMSO” value (100 mM in DMSO) was “cloudy solution”.
For the molecule `COCCOCCOCCn1cc(CCC(=O)N2CCN(C(=O)Oc3ccc4c(C)cc(=O)oc4c3)C(CNC(=O)Cc3ccccc3)C2)nn1` (centres unmarked) [Compound 31, 4-methyl-2-oxo-2H-chromen-7-yl 4-(3-(1-(2-(2-(2-methoxyethoxy)ethoxy)ethyl)-1H-1,2,3-triazol-4-yl)propanoyl)-2-((2-phenylacetamido)methyl)piperazine-1-carboxylate], the “hydrosolubility” value is, setting by setting: (50 μM in PBS buffer) “soluble”; (100 μM in PBS buffer) “soluble”; (250 μM in PBS buffer) “soluble”; (500 μM in PBS buffer) “soluble”; (1 mM in PBS buffer) “soluble”.
`CCCCCCCC(=O)OCC1CNCCN1C(=O)Oc1ccc2c(C)cc(=O)oc2c1` (centres unmarked) [Compound 21, 4-methyl-2-oxo-2H-chromen-7-yl 2-((octanoyloxy)methyl)piperazine-1-carboxylate]: the “hydrosolubility” value (50 μM in PBS buffer) is listed as “soluble”; the “hydrosolubility” value (100 μM in PBS buffer) was “soluble”; the “hydrosolubility” value (250 μM in PBS buffer) is recorded as “soluble”; the “hydrosolubility” value (500 μM in PBS buffer) is given as “insoluble”; the “hydrosolubility” value (1 mM in PBS buffer) is on record as “insoluble”.
As to `CCCCCCCC(=O)OCC1CN(CCCCS(=O)(=O)O)CCN1C(=O)Oc1ccc2c(C)cc(=O)oc2c1` (centres unmarked) [Compound 22, 4-(4-(((4-methyl-2-oxo-2H-chromen-7-yl)oxy)carbonyl)-3-((octanoyloxy)methyl)piperazin-1-yl)butane-1-sulfonic Acid], the “hydrosolubility” value reads like this: (50 μM in PBS buffer) “soluble”; (100 μM in PBS buffer) “soluble”; (250 μM in PBS buffer) “soluble”; (500 μM in PBS buffer) “soluble”; (1 mM in PBS buffer) “soluble”.
For the molecule `COCCOCCOCCn1cc(CCC(=O)N2CCN(C(=O)Oc3ccc([N+](=O)[O-])cc3)C(CNC(=O)Cc3ccccc3)C2)nn1` (centres unmarked) [Compound 36, 4-nitrophenyl 4-(3-(1-(2-(2-(2-methoxyethoxy)ethoxy)ethyl)-1H-1,2,3-triazol-4-yl)propanoyl)-2-((2-phenylacetamido)methyl)piperazine-1-carboxylate], the “hydrosolubility” value (50 μM in PBS buffer) is listed as “soluble”; the “hydrosolubility” value (100 μM in PBS buffer) was “soluble”; the “hydrosolubility” value (250 μM in PBS buffer) is listed as “soluble”; the “hydrosolubility” value (500 μM in PBS buffer) is “soluble”; the “hydrosolubility” value (1 mM in PBS buffer) is “soluble”.

Source of the values: patent US10179929B2, “Water-soluble activatable molecular probes, intermediates for the synthesis thereof and associated detection methods” (ECOLE NORMALE SUPERIEURE DE LYON, priority 2014, dated 2019).
